The target in one data set is T1, human H3 receptor (Homo sapiens, UniProt Q9Y5N1).
T1 construct: expressed in transfected cells
The data set is described as follows: Human H3 radioligand binding ([3H]-N-alpha-methylhistamine, CHO cell membranes). The settings on record: membranes of CHO cells stably expressing the human H3 receptor; [3H]-N-alpha-methylhistamine approx. 1 nM. As for the experimental part:
Methods: CHO cells stably expressing the human H3 receptor (GenBank: NM_007232) were harvested and cell pellets were frozen (—80° C.). Cell pellets were resuspended in 5 mM Tris-HCl, pH 7.5 with […] and a cocktail of protease inhibitors (Complete Protease Inhibitior Tablets, Roche Diagnostics). Cells were disrupted using a polytron cell homogenizer and the suspension was centrifuged at 1000×g for 10 minutes at 4° C. The pellet was discarded and the supernatant centrifuged at 40,000×g for 30 min at 4° C. This membrane pellet was washed in membrane buffer containing 50 mM Tris-HCl, pH 7.5 with 0.6 mM EDTA, 5 mM MgCl2 and protease inhibitors, recentrifuged as above and the final pellet resuspended in membrane buffer plus 250 mM sucrose and frozen at −80° C.
Radioligand Binding. Membranes were resuspended in 50 mM Tris HCl (pH 7.4), 5 mM MgCl2, 0.1% BSA. The membrane suspensions (10 μg protein per well) were incubated in a 96 well microtiter plate with [^3H]-N-alpha-methylhistamine (approximately 1 nM final concentration), test compounds at various concentrations (0.01 nM-30 μM) and scintillation proximity beads (Perkin Elmer, FlashBlueGPCR Scintillating Beads) in a final volume of 80 μl for 4 hours at room temperature, protected from light. Non-specific binding was determined in the presence of 10 μM clobenpropit. Radioligand bound to receptor, and therefore in proximity to the scintillation beads, was measured using a MicroBeta scintillation counter.

T1 sequence (Q9Y5N1 whole entry): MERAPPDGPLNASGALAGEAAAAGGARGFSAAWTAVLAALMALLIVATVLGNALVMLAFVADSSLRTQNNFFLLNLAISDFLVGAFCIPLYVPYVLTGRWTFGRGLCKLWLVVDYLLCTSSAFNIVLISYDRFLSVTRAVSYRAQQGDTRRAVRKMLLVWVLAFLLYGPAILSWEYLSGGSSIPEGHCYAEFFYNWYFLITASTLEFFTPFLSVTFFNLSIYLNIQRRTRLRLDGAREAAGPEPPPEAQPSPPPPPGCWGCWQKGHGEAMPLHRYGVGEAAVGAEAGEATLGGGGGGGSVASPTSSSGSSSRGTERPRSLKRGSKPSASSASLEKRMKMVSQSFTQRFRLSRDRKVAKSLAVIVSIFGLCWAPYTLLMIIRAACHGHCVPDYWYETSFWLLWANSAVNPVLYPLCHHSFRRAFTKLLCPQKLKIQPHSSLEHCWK

Broadly, the Ki is the equilibrium dissociation constant of an inhibitor or competing ligand from its target. As a reminder, the melting point is the temperature of the solid-liquid transition. As for `C[C@@H]1CCCN1CCCOc1ccc(-c2nnc(Cl)c3c2C2CCC3CC2)cc1` [Example 18, 3-Chloro-6-{4-[3-((R)-2-methyl-pyrrolidin-1-yl)-propoxy]-phenyl}-4,5-diaza-tricyclo[6.2.2.0*2,7*]dodeca-2(7),3,5-triene], the melting point lay within 132 to 134 °C. In addition, at human H3 receptor, the Ki was less than 50 nM.

Take `COc1cc(-c2ccc(Cl)nn2)ccc1OCCCN1CCCCC1` [Example 11, 3-Chloro-6-[3-methoxy-4-(3-piperidin-1-yl-propoxy)phenyl]pyridazine]: the melting point stood at 120 °C. The Ki on human H3 receptor was more than 101 nM.

Turning to `C[C@@H]1CCCN1CCCOc1ccc(-c2ccc(N3CCCC3)nn2)cc1` [Example 5, 3-{4-[3-((R)-2-Methyl-pyrrolidin-1-yl)-propoxy]-phenyl}-6-pyrrolidin-1-yl-pyridazine], the melting point was 175 to 180 °C. Moreover, the Ki at human H3 receptor is less than 50 nM.

`C[C@@H]1CCCN1CCCOc1ccc(-c2ccc(-c3ccccc3)nn2)cc1` [Example 4, 3-{4-[3-((R)-2-Methyl-pyrrolidin-1-yl)-propoxy]-phenyl}-6-phenylpyridazine] displayed a melting point of 158 to 160 °C. Moreover, the Ki at human H3 receptor was less than 50 nM.

Molecule `c1ccc(Oc2ccc(-c3ccc(OCCCN4CCCCC4)cc3)nn2)cc1` [Example 25, 3-Phenoxy-6-[4-(3-piperidin-1-yl-propoxy)phenyl]pyridazine] showed a melting point of 139 °C. Further, the Ki on human H3 receptor is less than 50 nM.

In the case of `C[C@@H]1CCCN1CCCOc1ccc(-c2ccc(Cl)nn2)cc1C#N` [Example 13, 5-(6-Chloro-pyridazin-3-yl)-2-[3-((R)-2-methyl-pyrrolidin-1-yl)-propoxy]benzonitrile], the melting point was 134 to 136 °C. The Ki at human H3 receptor was less than 50 nM.

For the molecule `C[C@@H]1CCCN1CCCOc1ccc(-c2ccc(OCc3ccccc3)nn2)cc1` [Example 21, 3-Benzyloxy-6-{4-[3-((R)-2-methyl-pyrrolidin-1-yl)-propoxy]phenyl}pyridazine], the melting point is 114 °C. The molecule also had a Ki on human H3 receptor of less than 50 nM.

As for `C[C@@H]1CCCN1CCCOc1ccc(-c2ccc(N3CCC(O)CC3)nn2)cc1` [Example 9, 1-(6-{4-[3-((R)-2-Methylpyrrolidin-1-yl)-propoxy]phenyl}pyridazin-3-yl)piperidin-4-ol], the melting point lay within 138 to 141 °C. The molecule also gave a Ki at human H3 receptor of less than 50 nM.

Take `C[C@@H]1CCCN1CCCOc1ccc(-c2ccc(-c3cc4ccccc4o3)nn2)cc1` [Example 41, 3-Benzofuran-2-yl-6-{4-[3-((R)-2-methyl-pyrrolidin-1-yl)-propoxy]-phenyl}pyridazine]: the melting point is 180 °C. The same molecule returned an inhibition constant (Ki) at human H3 receptor of less than 50 nM.

Take `CC1CCCCN1C[C@H](C)COc1ccc(-c2ccc(Cl)nn2)cc1` (stereo partly drawn) [Example 44, 3-Chloro-6-{4-[(S)-2-methyl-3-(2-methylpiperidin-1-yl)propoxy]-phenyl}pyridazine]: the melting point fell in the range of 108 to 110 °C. On human H3 receptor, this molecule registered a Ki of more than 101 nM.

Molecule `C[C@@H]1CCCN1CCCOc1ccc(-c2nnc(SCc3ccccc3)c3c2CCC3)cc1` [Example 42, 1-Benzylsulfanyl-4-{4-[3-((R)-2-methyl-pyrrolidin-1-yl)propoxy]-phenyl}-6,7-dihydro-5H-cyclopenta[d]pyridazine] came in with a melting point of 122 °C. Moreover, the Ki on human H3 receptor was less than 50 nM.

Turning to `Clc1nnc(-c2ccc(OCCCN3CCCCC3)cc2)c2c1CCC2` [Example 15, 1-Chloro-4-[4-(3-piperidin-1-yl-propoxy)-phenyl]-6,7-dihydro-5H-cyclopenta[d]pyridazine], the melting point was determined as 120 °C. The molecule further came in with a Ki on human H3 receptor of less than 50 nM.

As to `C[C@@H]1CCCN1CCCOc1ccc(-c2nnc(Cl)c3c2CCC3)cc1` [Example 17, 1-Chloro-4-{4-[3-((R)-2-metyl-pyrrolidin-1-yl)-propoxy]-phenyl}-6,7-dihydro-5H-cyclopenta[d]pyridazine], the melting point was found to be 65 °C. On human H3 receptor, the Ki is less than 50 nM.

In turn, `COc1ccc(-c2ccc(OCCCN3CCC[C@H]3C)cc2)nn1` [Example 22] displayed a melting point of 121 °C. On human H3 receptor, this molecule yielded a Ki of less than 50 nM.

For the molecule `C[C@@H]1CCCN1CCCOc1ccc(-c2ccc(-c3cccs3)nn2)cc1` [Example 16, 3-{4-[3-((R)-2-Methyl-pyrrolidin-1-yl)-propoxy]phenyl}-6-thiophen-2-yl-pyridazine], the melting point is 108 °C. In addition, the Ki at human H3 receptor was less than 50 nM.

`C[C@@H]1CCCN1CCCOc1ccc(-c2ccc(NCc3ccccc3)nn2)cc1` [Example 29, Benzyl-(6-{4-[3-((R)-2-methyl-pyrrolidin-1-yl)-propoxy]-phenyl}-pyridazin-3-yl)amine] registered a melting point of 139.5 to 141 °C. Moreover, at human H3 receptor, the Ki is less than 50 nM.

In the case of `COc1cc(-c2ccc(Cl)nn2)ccc1OCCCN1CCC[C@H]1C` [Example 10, 3-Chloro-6-{3-methoxy-4-[3-((R)-2-methyl-pyrrolidin-1-yl)propoxy}phenyl}pyridazine], the melting point came out at 122 °C. On human H3 receptor, this molecule returned a Ki of more than 101 nM.

(Values after patent publication US8076331B2, “Substituted pyridazine derivatives” (Cephalon, Inc., priority 2008, dated 2011).)
